This is an account of results in EP0405506A1, “Tetrapeptide type-B CCK receptor ligands” (ABBOTT LABORATORIES, priority 1989, dated 1991).

Broadly, the pIC50 is −log10 of the IC50, conventionally taken in molar units. Lower therefore signals a high IC50.

pIC50: −log10 of the molar value. Where two headings read alike, the source gives them in different places. Square brackets hold non-standard residues; d marks the D form. Peptide text beside a SMILES is read from it. * marks the point of attachment. Ala(1H-tetrazol-5-yl) = N[C@@H](Cc1nnn[nH]1)C(=O)O; 1Nal = N[C@@H](Cc1cccc2ccccc12)C(=O)O; 2Nal = N[C@@H](Cc1ccc2ccccc2c1)C(=O)O; Tic = O=C(O)[C@@H]1Cc2ccccc2CN1; Cha = N[C@@H](CC1CCCCC1)C(=O)O; NMeL = CN[C@@H](CC(C)C)C(=O)O; Cbz = O=C(OCc1ccccc1)*; Boc = CC(C)(C)OC(=O)*

Assay [1] concerns the target T1, CCK receptors (Cavia porcellus, UniProt Q63931).
T1 construct: Cortical and pancreatic membranes were prepared as described; from tissue; host or cells: guinea pig pancreas membranes
T1 sequence (Q63931 1-430): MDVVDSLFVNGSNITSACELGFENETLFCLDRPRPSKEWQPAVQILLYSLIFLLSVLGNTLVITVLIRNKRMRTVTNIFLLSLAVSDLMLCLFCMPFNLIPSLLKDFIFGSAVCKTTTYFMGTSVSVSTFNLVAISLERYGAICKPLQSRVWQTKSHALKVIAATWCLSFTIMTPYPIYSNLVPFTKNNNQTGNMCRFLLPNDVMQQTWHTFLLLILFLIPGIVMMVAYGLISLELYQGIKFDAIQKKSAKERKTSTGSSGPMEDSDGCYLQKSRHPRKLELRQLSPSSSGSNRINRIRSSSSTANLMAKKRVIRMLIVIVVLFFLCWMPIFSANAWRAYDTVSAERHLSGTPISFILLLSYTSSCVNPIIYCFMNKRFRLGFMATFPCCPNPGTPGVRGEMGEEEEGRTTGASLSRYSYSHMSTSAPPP
As to the kind of experiment: Radioligand binding ([125I]Bolton-Hunter CCK8) in guinea pig pancreatic membranes. The following applies: for IC50: displacement of [125I]BH-CCK8, pancreatic membranes, 37°C for 150 min, Hill analysis, read-out: IC₅₀ (uM) pancreas. Background: Loss of bound radioactivity is the signal in a displacement assay; it reports binding, not function.
Method: EGTA, HEPES, BSA were purchased from Sigma Chemical Co. (St. Louis, MO). […] Male ginea pigs, 250 to 325 g, were obtained from Scientific Small Animal Laboratory and Farm (Arlington Heights, IL). Collangenase, code CLSPA was purchased from Worthington (Frehold, NJ).
The final BSA concentration was 0.1%. The cortical tissues were incubated at 30°C for 150 min. and pancreatic tissues were incubated at 37°C for 150 min. Incubations were terminated by filtration using Skatron Cell Harvester and SS32 microfiber filter mats. […] IC₅₀s were determined from the Hill analysis.

Assay [2] deals with T2, cortical CCK receptor (Cavia porcellus, UniProt H0VZC5).
T2 construct: Cortical and pancreatic membranes were prepared as described; from tissue; host or cells: guinea pig cerebral cortex membranes
T2 sequence (H0VZC5 1-426): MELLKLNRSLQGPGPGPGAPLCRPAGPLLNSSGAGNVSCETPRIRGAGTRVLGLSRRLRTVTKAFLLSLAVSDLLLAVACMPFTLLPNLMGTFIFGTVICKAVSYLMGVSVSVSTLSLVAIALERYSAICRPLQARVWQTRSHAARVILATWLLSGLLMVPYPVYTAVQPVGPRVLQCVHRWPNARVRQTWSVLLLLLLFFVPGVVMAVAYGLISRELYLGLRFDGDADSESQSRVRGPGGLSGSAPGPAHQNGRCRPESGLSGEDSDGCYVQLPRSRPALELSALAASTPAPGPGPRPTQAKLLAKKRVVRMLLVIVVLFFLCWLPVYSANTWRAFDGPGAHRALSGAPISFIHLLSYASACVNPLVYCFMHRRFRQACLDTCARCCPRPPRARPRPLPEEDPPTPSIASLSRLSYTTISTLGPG
As to the kind of experiment: Radioligand binding ([125I]Bolton-Hunter CCK8) in guinea pig cerebral cortical membranes. The settings on record: displacement of [125I]BH-CCK8, cortical membranes, 30°C for 150 min, Hill analysis; read-out: IC₅₀ (nM) cortex. The text has this: Protocol for Radioligand Binding Experiments in Guinea Pig Cerebral Cortical and Pancreatic Membrance Preparations
CCK8 (Asp-Tyr(SO₃H)-Met-Gly-Trp-Met-Asp-Phe-NH₂), bestatin and phosphormaidon were purchased from Peptide International (Louisville, KY). EGTA, HEPES, BSA were purchased from Sigma Chemical Co. (St. Louis, MO). [¹²⁵I]-Bolton-Hunter CCK8 (BH-CCK8) (specific activity, 2200 Ci, mmol) was obtained from New England Nuclear (Boston, MA). Male ginea pigs, 250 to 325 g, were obtained from Scientific Small Animal Laboratory and Farm (Arlington Heights, IL). Collangenase, code CLSPA was purchased from Worthington (Frehold, NJ).
Cortical and pancreatic membranes were prepared as described (Lin and Miller; J. Pharmacol. Exp. Ther. 232, 775-780, 1985). In brief, pancreas and cortex were removed and rinsed with ice-cold saline. Visible fat and connective tissues were removed from the pancreas. Tissues were weighed and homogenized in approximately 25 mL of ice-cold 50 mM Tris-HCl buffer, pH 7.4 at 4°C with a Brinkman Polytron for 30 sec, setting 7. The homogenates were centrifuged for 10 min at 1075 x g and the pellet was discarded. The supernantants were saved and centrifuged at 38,730 x g for 20 min. The resultant pellets were rehomogenized in 25 mL of 50 mM Tris-HCl buffer with a Teflon-glass homogenizer, 5 up and down strokes. The homogenates were centrifuged again at 38,730 x g for 20 min. The pellets were then resuspended in 20 mM HEPES, containing 1 mM EGTA, 118 mM NaCl, 4.7 mM KCl, 5mM MgCl₂, 100 uM bestatin, 3 uM phosphoramidon, pH 7.4 at 22°C with a Teflon-glass homogenizer, 15 up and down strokes. The resuspension volume used for the cortex was 15 mL per g of original wet weight and 60 mL per g for pancreas.
[¹²⁵I]Bolton-Hunter CCK8 and test compounds were diluted with HEPES-EGTA-salt buffer (see above) containing 0.5% bovine serum albumin (BSA). To 1 mL Skatron polystyrene tubes were added 25 uL of test compounds, 25 uL of [¹²⁵I]BH-CCK8 and 200 uL of membrane suspension. The final BSA concentration was 0.1%. The cortical tissues were incubated at 30°C for 150 min. and pancreatic tissues were incubated at 37°C for 150 min. Incubations were terminated by filtration using Skatron Cell Harvester and SS32 microfiber filter mats. The specific binding of [¹²⁵I]BH-CCK8, defined as the difference betwen binding in the absence and presence of 1 uM CCK8, was 85-90% of total binding in cortex and 90-95% in pancreas. IC₅₀s were determined from the Hill analysis.

In assay [3] the target is T3, CCK-B receptors on small cell lung cancer cell lines (Homo sapiens, UniProt P32239).
T3 construct: endogenous in cells; host or cells: NCI-H345 and H209 small cell lung cancer cells
T3 sequence (P32239 1-447): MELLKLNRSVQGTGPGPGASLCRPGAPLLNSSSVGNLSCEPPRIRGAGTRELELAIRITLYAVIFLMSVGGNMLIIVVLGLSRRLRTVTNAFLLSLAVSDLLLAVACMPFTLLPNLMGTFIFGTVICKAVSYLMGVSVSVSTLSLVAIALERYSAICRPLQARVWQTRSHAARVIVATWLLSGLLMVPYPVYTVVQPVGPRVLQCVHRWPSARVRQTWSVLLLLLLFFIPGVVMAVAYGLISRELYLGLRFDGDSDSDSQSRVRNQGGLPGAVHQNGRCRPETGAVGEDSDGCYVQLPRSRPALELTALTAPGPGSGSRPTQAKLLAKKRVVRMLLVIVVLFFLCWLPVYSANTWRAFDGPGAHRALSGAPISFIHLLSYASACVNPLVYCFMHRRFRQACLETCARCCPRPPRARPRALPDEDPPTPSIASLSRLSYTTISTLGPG
Kind of assay: Measurement of [Ca++]i changes in NCI-H345 and H209 cell lines (indo-1 fluorescence). It is filed as cell-based. The following applies: read-out: Intrinsic Activity Relative to CCK-8.
Method: Protocol for Measuring [Ca++]i Changes in NCI-H345 and H209 Cell Lines
Culture conditions were as described (D.G. Yoder, T.W. Moody, Peptides, 8, 103 (1987), except that the medium was modified to RPMI 1640 with 2.5% fetal bovine serum (heat inactivated), 5µg/l sodium selenite, 5 mg/l human transferrin, 5 mg/l insulin, penicillin (100 U/l) and streptomycin (100 µg/l). To measure intracellular Ca²⁺, cells were loaded with 1 µM of indo-1,AM, for 60 min at 37°C. The cells were centrifuged at 750 x g for 5 min and resuspended in 40 mL Buffer F (Dulbecco's phosphate buffered saline containing 0.1% glucose, pH 7.4). The cells were counted then twice washed by centrifugation. The final pellet was resuspended (approximately 1 x 10⁶ cells/mL) in Buffer F. The cells were thermally equilibrated in a thermostated cuvette (37°C) for 2 min prior to base-line fluorescence measurement. Fluorescence measurements were made with an SLM 8000C spectrofluorimeter equipped with magnetic microstirrer and polarizing filters. Measurements with indo-1-loaded cells were obtained at excitation wavelength of 350 nm and emission wavelength of 480 and 405 nM and the time interval for the measurements was 0.5 sec.

As for `CC(C)C[C@H](NC(=O)[C@H](Cc1c[nH]c2ccccc12)NC(=O)OC(C)(C)C)C(=O)N[C@@H](CC(=O)O)C(=O)N[C@@H](Cc1cccc2ccccc12)C(N)=O` [Example 45, Boc-Trp-Leu-Asp-α-Nal-NH₂] (Boc-WLD[1Nal]-NH2), the IC50 stood at 1.7 µM in assay [1] and 12 nM in assay [2].

On to `CC(C)C[C@@H](C(=O)N[C@@H](CC(=O)O)C(=O)N[C@@H](Cc1ccccc1)C(N)=O)N(C)C(=O)[C@H](Cc1c[nH]c2ccccc12)NC(=O)OCc1ccccc1` [Example 15, Cbz-Trp-(NMe)Leu-Asp-Phe-NH₂] (Cbz-W[NMeL]DF-NH2), for which the IC50 in assay [1] amounted to 1 µM; in assay [2] it was 5 nM.

Consider `CCC[C@H]1CCN(C(=O)[C@@H]2Cc3c[nH]c4cccc(c34)CC(=O)N2)[C@@H]1C(=O)N[C@@H](CC(=O)O)C(=O)N[C@@H](Cc1cccc2ccccc12)C(N)=O` [Example 57, Ctp-Tpp-Asp-α-Nal-NH₂], for which the results for the IC50 in assay [1] and in assay [2] were 1.4 µM and 0.4 nM, respectively. Besides, the Emax in assay [3] is 109%.

On to `CC(C)C[C@H](NC(=O)[C@H](Cc1c[nH]c2ccccc12)NC(=O)OC(C)(C)C)C(=O)N[C@@H](CC(=O)O)C(=O)N[C@@H](Cc1ccc2ccccc2c1)C(N)=O` [Example 44, Boc-Trp-Leu-Asp-β-Nal-NH₂] (Boc-WLD[2Nal]-NH2), for which the Emax in assay [3] is 104%.

On to `CCC[C@H]1CCN(C(=O)[C@H](Cc2c[nH]c3ccccc23)NC(=O)OC(C)(C)C)[C@@H]1C(=O)N[C@@H](CC(=O)O)C(=O)N[C@@H](Cc1c[nH]c2ccccc12)C(N)=O` [Example 54, Boc-Trp-Tpp-Asp-Trp-NH₂], for which the IC50 in assay [1] was 3.7 µM; in assay [2], 5 nM.

`CCC[C@H]1CCN(C(=O)[C@@H]2Cc3c[nH]c4cccc(c34)CC(=O)N2)[C@@H]1C(=O)N[C@@H](CC(=O)O)C(=O)N[C@@H](CC1CCCCC1)C(N)=O` [Example 59, Ctp-Tpp-Asp-Cha-NH₂]: the IC50 was determined as 4.3 µM in assay [1] and 0.9 nM in assay [2].

Regarding `CCC[C@H]1CCN(C(=O)[C@@H]2Cc3c[nH]c4cccc(c34)CC(=O)N2)[C@@H]1C(=O)N[C@@H](CC(=O)O)C(=O)N[C@@H](Cc1ccc2ccccc2c1)C(N)=O` [Example 58, Ctp-Tpp-Asp-β-Nal-NH₂], the IC50 was 11 µM in assay [1] and 1.9 nM in assay [2]. For the same molecule, the Emax in assay [3] is 100%.

In the case of `CCC[C@H]1CCN(C(=O)[C@@H]2Cc3c[nH]c4cccc(c34)CC(=O)N2)[C@@H]1C(=O)N[C@@H](CC(=O)O)C(=O)N(C)[C@@H](Cc1ccccc1)C(N)=O` [Example 52, Ctp-Tpp-Asp-(NMe)Phe-NH₂], the IC50 came to 3.5 µM in assay [1] and 2.6 nM in assay [2]. Also, the Emax in assay [3] amounted to 100%.

As to `CC(C)C[C@H](NC(=O)[C@H](Cc1ccc2ccccc2c1)NC(=O)OC(C)(C)C)C(=O)N[C@@H](CC(=O)O)C(=O)N[C@@H](Cc1ccccc1)C(N)=O` [Example 50, Boc-β-Nal-Leu-Asp-Phe-NH₂] (Boc-[2Nal]LDF-NH2), the IC50 in assay [1] came out at 5 µM; in assay [2] it was 27 nM.

For `CC(C)C[C@H](NC(=O)[C@@H]1Cc2c[nH]c3cccc(c23)CC(=O)N1)C(=O)N[C@@H](CC(=O)O)C(=O)N(C)[C@@H](Cc1ccccc1)C(N)=O` [Example 6, Ctp-Leu-Asp-(NMe)Phe-NH₂], the Emax in assay [3] turned out to be 96%.

For the molecule `CC(C)C[C@H](NC(=O)[C@H](Cc1c[nH]c2ccccc12)NC(=O)OC(C)(C)C)C(=O)N[C@@H](Cc1nnn[nH]1)C(=O)N[C@@H](Cc1ccccc1)C(N)=O` [Example 9, Boc-Trp-Leu-[β-1(2)H-tetrazol-5-yl]-L-alanyl-Phe-NH₂] (Boc-WL[Ala(1H-tetrazol-5-yl)]F-NH2), the IC50 in assay [1] was above 1 µM; in assay [2], 13 nM.

As for `CC(C)C[C@H](NC(=O)[C@@H]1Cc2c[nH]c3cccc(c23)CC(=O)N1)C(=O)N[C@@H](CC(=O)O)C(=O)NC(=Cc1ccccc1)C(N)=O` [Example 23, Ctp-Leu-Asp-(dehydro)Phe-NH₂], the IC50 in assay [1] was above 10 µM; in assay [2], 16 nM.

For `CC(C)C[C@H](NC(=O)[C@@H]1Cc2c[nH]c3cccc(c23)CC(=O)N1)C(=O)N[C@@H](CC(=O)O)C(=O)N[C@@H](Cc1ccccc1)C(N)=O` [Example 1, CTP-Leu-Asp-Phe-NH₂], the figures for the IC50 in assay [1] and in assay [2] were 2.7 µM and 2.5 nM, respectively.

As for `CCC[C@H]1CCN(C(=O)[C@H](Cc2c[nH]c3ccccc23)NC(=O)OC(C)(C)C)[C@@H]1C(=O)N[C@@H](CC(=O)O)C(=O)N[C@@H](Cc1ccccc1)C(N)=O` [Example 47, Boc-Trp-Tpp-Asp-Phe-NH₂], the values for the IC50 in assay [1] and in assay [2] were 89 µM and 1.2 nM, respectively.

For `CC(C)C[C@H](NC(=O)[C@H](Cc1c[nH]c2ccccc12)NC(=O)OC(C)(C)C)C(=O)N[C@@H](CC(=O)O)C(=O)NC(=Cc1ccccc1)C(N)=O` [Example 19, Boc-Trp-Leu-Asp-(dehydro)Phe-NH₂], the IC50 in assay [1] was 1.8 µM; in assay [2], 54 nM.

For the molecule `CC(C)C[C@H](NC(=O)[C@H](Cc1c[nH]c2ccccc12)NC(=O)OC(C)(C)C)C(=O)N[C@@H](CC(=O)O)C(=O)N[C@@H](Cc1c[nH]c2ccccc12)C(N)=O` [Example 42, Boc-Trp-Leu-Asp-Trp-NH₂] (Boc-WLDW-NH2), the IC50 was 3.8 µM in assay [1] and 13 nM in assay [2].

On to `CC(C)C[C@H](NC(=O)[C@H](Cc1c[nH]c2ccccc12)NC(=O)OC(C)(C)C)C(=O)N[C@@H](CC(=O)O)C(=O)N[C@@H](CC1CCCCC1)C(N)=O` [Example 43, Boc-Trp-Leu-Asp-Cha-NH₂] (Boc-WLD[Cha]-NH2), for which the IC50 came to 11 µM in assay [1] and 170 nM in assay [2].

Molecule `CC(C)C[C@H](NC(=O)[C@H](Cc1c[nH]c2ccccc12)NC(=O)OC(C)(C)C)C(=O)N[C@@H](CC(=O)O)C(=O)N1Cc2ccccc2C[C@H]1C(N)=O` [Example 2, Boc-Trp-Leu-Asp-Tiq-NH₂] (Boc-WLD[Tic]-NH2) gave a pIC50 in assay [1] of 4.72. The IC50 in assay [2] was 37 nM.
